Read-outs that look alike come from different tables or passages of the source.
Tests used:
PKCδ-C1B peptide [1] = target: T1, PKCδ-C1B peptide (Mus musculus, UniProt P28867); assay: Competition binding assay with [3H]PDBu using synthetic PKCδ-C1B peptide
T1 construct: made in house; host or cells: chemical peptide synthesis (no expression host)
Protocol: The binding of [^3H]PDBu to the PKCδ-C1B peptide was evaluated by the procedure of Sharkey and Blumberg with modifications as reported previously using 50 mM tris-maleate buffer (pH 7.4 at 4 °C), 13.8 nM PKCδ-C1B peptide, 20 nM [^3H]PDBu (18.7 Ci/mmol, Perkin-Elmer Life Sciences), 50 μg/mL 1,2-dioleoyl-sn-glycero-3-phospho-L-serine (Sigma, St. Louis, MO, USA), 3 mg/mL bovine γ-globulin (Sigma, St. Louis, MO, USA), and various concentrations of inhibitors. The concentration of the properly folded PKCδ-C1B peptide was estimated to be about 3 nM on the basis of Bmax values of Scatchard analyses reported previously. Binding affinity was evaluated based on the concentration required to cause 50% inhibition of the specific binding of [^3H]PDBu, the IC50, which was calculated with Microsoft Excel. The inhibition constant, Ki, was calculated by the method of Sharkey and Blumberg.

HeLa cells = details: read-out: IC50 (cytotoxic effects); cited from earlier work
[2] = Cytotoxicity assay toward L1210 leukemia cells; type: cell-based; details: mouse
Protocol: The cytotoxic activities of compounds 1 and 2 were tested toward L1210 mouse leukemia cells. The detailed methods were reported previously. Differences with the reported methods were (a) samples were dissolved with methanol; and (b) the methanol dissolved samples were applied onto each well and air-dried before the addition of L1210 cells.

ACC-MESO-1 cells = details: read-out: IC50 (cytotoxic effects); cited from earlier work
[3] = tested on: shrimp Palaemon paucidens; assay: Crustacean lethality test, injection into abdominal cavity of shrimp; type: in vivo; details: for LD100 (lethal dose 100%): injection into abdominal cavity, monitored for 4 h
Protocol: The shrimp Palaemon paucidens (average weight, 0.5 g) was used for the crustacean lethality test. Tested samples were suspended with 1% Tween 20 (polyoxyethylene (20) sorbitan monolaurate). Two micro liter of each sample suspension was injected into the abdominal cavity of the shrimp (n = 3–5). The shrimp were monitored every 30 min for 4 h. Through the lethality tests, the lethal dose 100% values (LD100) were determined. One percent Tween 20 without sample was used as reference. LD100 was defined as weight of sample per unit weight of crustacean.

PKCδ-C1B peptide [4] = target: T1, PKCδ-C1B peptide; details: read-out: Ki for binding to PKCδ-C1B; cited from earlier work

T1 sequence (P28867 231-281 limits assumed): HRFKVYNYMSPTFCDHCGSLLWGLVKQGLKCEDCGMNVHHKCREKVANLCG

Structure (SMILES)	Ki (PKCδ-C1B peptide [1]) [µM]	IC50 (HeLa cells) [µM]	IC50 [2] [µM]	IC50 (ACC-MESO-1 cells) [µM]	Paralysis at dose less than the lethal amount ([3]; injection)	LD100 (lethal dose 100%) [3] [mg/kg]	Ki (PKCδ-C1B peptide [4]) [µM]	Times lower binding affinity for PKC compared to lyngbyatoxin A (2) (PKCδ-C1B peptide [1]; PKCδ-C1B peptide, relative to compound 2)	Dose causing paralysis ([3]; injection, dose below the lethal dose) [mg/kg]
C=C[C@@](C)(CCC=C(C)C)c1ccc2c3c(c[nH]c13)C[C@@H](CO)NC(=O)[C@H](C(C)C)N2C [compound 2, Lyngbyatoxin A]	0.00011	35	8.1	11	Paralysis was not observed	5	–	–	–
CO[C@@H](CC[C@H](C)[C@H]1O[C@@]23C[C@H](OC(=O)C[C@H]([C@@H](C)O)OC(=O)C[C@](O)(O2)[C@H](C)CC3(C)C)[C@@H]1C)c1cc(O)ccc1Br [ATX, Aplysiatoxin]	–	–	–	–	–	–	0.00041	–	–
CO[C@@H](CC[C@H](C)[C@H]1O[C@@]23C[C@H](OC(=O)C[C@H]([C@@H](C)O)OC(=O)C[C@](O)(O2)[C@H](C)CC3(C)C)[C@@H]1C)c1cccc(O)c1 [DATX, debromoaplysiatoxin]	–	–	–	–	–	–	0.0002	–	–
C=C[C@@](C)(CCC=C(C)C)c1ccc2c3c(c[nH]c13)C[C@@H](CO)NC(=O)[C@@H](C(C)C)N2C [compound 1, 12-Epi-lyngbyatoxin A]	0.017	–	20.4	–	–	7.5	–	more than 100 times	0.9

From article PMC4052313, “A New Lyngbyatoxin from the Hawaiian Cyanobacterium Moorea producens” (Marine Drugs, 2014)
